Measurements as given in article PMC7180948, “New Insights into 4-Anilinoquinazolines as Inhibitors of Cardiac Troponin I–Interacting Kinase (TNNi3K)” (Molecules, 2020).

Key:
Assay in all cases: biochemical
Parameters in all cases: KINOMEscan competition binding panel (Eurofins DiscoverX), single concentration, % inhibition
IKK-beta = target: T1, IKK-beta (Homo sapiens, UniProt O14920); details: read-out: 7 at 1 µM % inhibition
T1 construct: gene IKBKB
Procedure, shortened: (§1)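 Selectivity profile from a KINOMEscan run against >400 human kinases; test concentration 1 µM.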

BMPR1A = BMPR1A (Homo sapiens, UniProt P36894); details: read-out: 7 at 1 µM % inhibition
Procedure, shortened: as §1

ROCK2 = ROCK2 (Homo sapiens, UniProt O75116); details: read-out: 7 at 1 µM % inhibition
Procedure, shortened: as §1

PDGFRA = PDGFRA (Homo sapiens, UniProt P16234); details: read-out: 7 at 1 µM % inhibition
Procedure, shortened: as §1

ROCK1 = ROCK1 (Homo sapiens, UniProt Q13464); details: read-out: 7 at 1 µM % inhibition
Procedure, shortened: as §1

ALK(L1196M) = ALK(L1196M) (Homo sapiens, UniProt Q9UM73, L1196M); details: read-out: 7 at 1 µM % inhibition
Procedure, shortened: as §1

TNK2 = TNK2 (Homo sapiens, UniProt Q07912); details: read-out: 7 at 1 µM % inhibition
Procedure, shortened: as §1

KIT(D816H) = KIT(D816H) (Homo sapiens, UniProt P10721, D816H); details: read-out: 7 at 1 µM % inhibition
Procedure, shortened: as §1

GRK3 = GRK3 (Homo sapiens, UniProt P35626); details: read-out: 7 at 1 µM % inhibition
Procedure, shortened: as §1

SGK = target: T2, SGK (Homo sapiens, UniProt O00141); details: read-out: 7 at 1 µM % inhibition
T2 construct: gene SGK1
Procedure, shortened: as §1

ERBB2 = ERBB2 (Homo sapiens, UniProt P04626); details: read-out: 7 at 1 µM % inhibition
Procedure, shortened: as §1

[1] = target: T3, ABL1(F317L)-nonphosphorylated (Homo sapiens, UniProt P00519, F317L); details: read-out: 7 at 1 µM % inhibition
T3 construct: nonphosphorylated
Procedure, shortened: as §1

ROS1 = ROS1 (Homo sapiens, UniProt P08922); details: read-out: 7 at 1 µM % inhibition
Procedure, shortened: as §1

NEK3 = NEK3 (Homo sapiens, UniProt P51956); details: read-out: 7 at 1 µM % inhibition
Procedure, shortened: as §1

CSNK1A1L = CSNK1A1L (Homo sapiens, UniProt Q8N752); details: read-out: 7 at 1 µM % inhibition
Procedure, shortened: as §1

CAMK1 = CAMK1 (Homo sapiens, UniProt Q14012); details: read-out: 7 at 1 µM % inhibition
Procedure, shortened: as §1

HIPK3 = HIPK3 (Homo sapiens, UniProt Q9H422); details: read-out: 7 at 1 µM % inhibition
Procedure, shortened: as §1

TBK1 = TBK1 (Homo sapiens, UniProt Q9UHD2); details: read-out: 7 at 1 µM % inhibition
Procedure, shortened: as §1

PIK3CA(M1043I) = PIK3CA(M1043I) (Homo sapiens, UniProt P42336, M1043I); details: read-out: 7 at 1 µM % inhibition
Procedure, shortened: as §1

IRAK1 = IRAK1 (Homo sapiens, UniProt P51617); details: read-out: 7 at 1 µM % inhibition
Procedure, shortened: as §1

CLK2 = CLK2 (Homo sapiens, UniProt P49760); details: read-out: 7 at 1 µM % inhibition
Procedure, shortened: as §1

PIK3CG = PIK3CG (Homo sapiens, UniProt P48736); details: read-out: 7 at 1 µM % inhibition
Procedure, shortened: as §1

PFCDPK1(P.falciparum) = target: T4, PFCDPK1(P.falciparum) (Plasmodium falciparum, UniProt P62344); details: read-out: 7 at 1 µM % inhibition (pathogen kinases)
T4 construct: gene CDPK1
Procedure, shortened: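 Values come from single-concentration (1 µM) profiling in the Eurofins DiscoverX KINOMEscan competition-binding platform, which covers over 400 kinases.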

KIT(A829P) = KIT(A829P) (Homo sapiens, UniProt P10721, A829P); details: read-out: 7 at 1 µM % inhibition
Procedure, shortened: as §1

T4 sequence (P62344 whole entry): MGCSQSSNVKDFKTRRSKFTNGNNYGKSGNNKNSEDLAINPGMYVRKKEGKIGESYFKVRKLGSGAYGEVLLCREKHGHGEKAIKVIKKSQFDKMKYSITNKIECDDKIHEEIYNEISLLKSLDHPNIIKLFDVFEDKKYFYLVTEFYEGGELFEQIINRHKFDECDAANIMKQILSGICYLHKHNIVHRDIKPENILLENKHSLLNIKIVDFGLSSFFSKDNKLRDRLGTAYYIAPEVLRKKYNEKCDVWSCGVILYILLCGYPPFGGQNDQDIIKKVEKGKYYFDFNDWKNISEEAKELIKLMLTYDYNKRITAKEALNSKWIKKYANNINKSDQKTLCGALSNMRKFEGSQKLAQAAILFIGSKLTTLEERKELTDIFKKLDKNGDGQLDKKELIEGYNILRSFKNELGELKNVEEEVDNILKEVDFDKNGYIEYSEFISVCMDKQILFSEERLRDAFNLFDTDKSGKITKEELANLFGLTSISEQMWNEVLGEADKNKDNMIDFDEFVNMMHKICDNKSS
Sequence of GRK3 (P35626 whole entry): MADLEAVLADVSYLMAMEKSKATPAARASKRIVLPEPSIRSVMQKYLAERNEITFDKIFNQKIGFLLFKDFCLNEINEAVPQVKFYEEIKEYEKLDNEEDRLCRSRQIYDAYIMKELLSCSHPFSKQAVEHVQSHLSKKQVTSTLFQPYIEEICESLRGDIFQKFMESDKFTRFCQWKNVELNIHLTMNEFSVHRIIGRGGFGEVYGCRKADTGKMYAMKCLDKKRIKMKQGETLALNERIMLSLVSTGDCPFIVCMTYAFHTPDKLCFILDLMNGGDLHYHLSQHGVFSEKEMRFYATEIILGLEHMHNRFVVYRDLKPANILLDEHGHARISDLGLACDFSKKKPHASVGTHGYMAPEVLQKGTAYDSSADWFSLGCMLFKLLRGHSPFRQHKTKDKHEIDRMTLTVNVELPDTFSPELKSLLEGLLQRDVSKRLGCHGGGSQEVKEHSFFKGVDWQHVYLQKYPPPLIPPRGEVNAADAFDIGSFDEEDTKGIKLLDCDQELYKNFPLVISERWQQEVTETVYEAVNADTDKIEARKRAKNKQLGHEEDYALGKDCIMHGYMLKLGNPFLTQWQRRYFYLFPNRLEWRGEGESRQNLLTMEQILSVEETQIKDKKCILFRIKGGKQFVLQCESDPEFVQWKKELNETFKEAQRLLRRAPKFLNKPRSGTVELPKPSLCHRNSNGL
Sequence of TNK2 (Q07912 whole entry): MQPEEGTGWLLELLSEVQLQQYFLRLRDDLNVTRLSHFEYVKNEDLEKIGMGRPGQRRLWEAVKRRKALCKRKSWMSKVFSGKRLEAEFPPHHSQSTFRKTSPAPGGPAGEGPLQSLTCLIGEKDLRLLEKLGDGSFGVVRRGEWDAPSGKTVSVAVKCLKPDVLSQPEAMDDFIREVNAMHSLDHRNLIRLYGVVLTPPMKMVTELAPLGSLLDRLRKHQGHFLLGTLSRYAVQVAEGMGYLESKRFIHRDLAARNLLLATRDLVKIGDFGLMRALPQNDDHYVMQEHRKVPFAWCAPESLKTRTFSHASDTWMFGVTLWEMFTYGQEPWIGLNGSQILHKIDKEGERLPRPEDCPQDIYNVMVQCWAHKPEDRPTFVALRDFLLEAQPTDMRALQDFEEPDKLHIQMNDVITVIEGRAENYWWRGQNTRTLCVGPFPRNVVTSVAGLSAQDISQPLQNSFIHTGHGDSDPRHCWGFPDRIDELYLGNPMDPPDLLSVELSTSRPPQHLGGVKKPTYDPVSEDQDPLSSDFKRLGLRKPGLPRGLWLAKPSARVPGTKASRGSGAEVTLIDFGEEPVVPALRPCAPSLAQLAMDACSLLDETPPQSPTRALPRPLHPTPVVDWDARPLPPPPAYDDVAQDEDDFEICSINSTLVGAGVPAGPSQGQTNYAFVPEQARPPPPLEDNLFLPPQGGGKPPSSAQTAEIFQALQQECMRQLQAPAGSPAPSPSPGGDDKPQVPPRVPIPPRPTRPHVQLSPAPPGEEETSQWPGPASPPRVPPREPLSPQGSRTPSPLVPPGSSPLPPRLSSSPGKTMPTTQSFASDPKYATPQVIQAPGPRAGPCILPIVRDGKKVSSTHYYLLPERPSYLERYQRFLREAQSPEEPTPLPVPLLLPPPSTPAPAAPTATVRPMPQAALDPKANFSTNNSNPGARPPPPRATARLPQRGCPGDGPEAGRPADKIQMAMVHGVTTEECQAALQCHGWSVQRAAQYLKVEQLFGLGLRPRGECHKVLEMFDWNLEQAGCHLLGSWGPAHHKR
Sequence of IRAK1 (P51617 whole entry): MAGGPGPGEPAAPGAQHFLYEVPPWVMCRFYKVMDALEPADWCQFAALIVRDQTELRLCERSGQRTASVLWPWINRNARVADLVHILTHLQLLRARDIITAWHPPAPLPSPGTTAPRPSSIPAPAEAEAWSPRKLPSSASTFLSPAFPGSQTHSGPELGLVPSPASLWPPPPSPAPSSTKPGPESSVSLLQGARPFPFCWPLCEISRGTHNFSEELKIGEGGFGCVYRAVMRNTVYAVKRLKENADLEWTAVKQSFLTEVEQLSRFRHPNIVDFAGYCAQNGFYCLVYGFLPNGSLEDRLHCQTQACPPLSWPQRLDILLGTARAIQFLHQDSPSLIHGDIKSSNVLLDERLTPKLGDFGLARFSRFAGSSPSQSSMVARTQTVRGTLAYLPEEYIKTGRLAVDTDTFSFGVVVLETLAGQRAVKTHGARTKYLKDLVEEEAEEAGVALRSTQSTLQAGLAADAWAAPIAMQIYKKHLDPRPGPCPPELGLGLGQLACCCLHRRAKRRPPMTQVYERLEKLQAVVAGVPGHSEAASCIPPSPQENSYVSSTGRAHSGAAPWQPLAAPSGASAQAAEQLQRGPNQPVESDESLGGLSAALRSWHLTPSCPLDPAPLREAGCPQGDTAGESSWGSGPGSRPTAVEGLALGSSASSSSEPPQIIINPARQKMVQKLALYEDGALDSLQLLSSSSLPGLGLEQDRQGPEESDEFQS
T2 sequence (O00141 whole entry): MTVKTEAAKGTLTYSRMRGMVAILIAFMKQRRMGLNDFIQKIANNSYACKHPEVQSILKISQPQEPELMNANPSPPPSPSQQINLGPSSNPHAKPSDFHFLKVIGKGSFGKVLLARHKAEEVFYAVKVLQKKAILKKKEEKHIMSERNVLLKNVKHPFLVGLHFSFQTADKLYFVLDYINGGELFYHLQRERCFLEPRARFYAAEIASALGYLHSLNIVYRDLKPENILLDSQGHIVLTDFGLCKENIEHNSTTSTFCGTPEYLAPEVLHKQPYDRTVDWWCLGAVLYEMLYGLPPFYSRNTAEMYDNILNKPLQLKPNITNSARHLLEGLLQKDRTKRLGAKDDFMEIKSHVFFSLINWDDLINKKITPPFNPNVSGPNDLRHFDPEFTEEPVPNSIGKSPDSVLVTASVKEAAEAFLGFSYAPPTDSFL
Sequence of ROCK2 (O75116 whole entry): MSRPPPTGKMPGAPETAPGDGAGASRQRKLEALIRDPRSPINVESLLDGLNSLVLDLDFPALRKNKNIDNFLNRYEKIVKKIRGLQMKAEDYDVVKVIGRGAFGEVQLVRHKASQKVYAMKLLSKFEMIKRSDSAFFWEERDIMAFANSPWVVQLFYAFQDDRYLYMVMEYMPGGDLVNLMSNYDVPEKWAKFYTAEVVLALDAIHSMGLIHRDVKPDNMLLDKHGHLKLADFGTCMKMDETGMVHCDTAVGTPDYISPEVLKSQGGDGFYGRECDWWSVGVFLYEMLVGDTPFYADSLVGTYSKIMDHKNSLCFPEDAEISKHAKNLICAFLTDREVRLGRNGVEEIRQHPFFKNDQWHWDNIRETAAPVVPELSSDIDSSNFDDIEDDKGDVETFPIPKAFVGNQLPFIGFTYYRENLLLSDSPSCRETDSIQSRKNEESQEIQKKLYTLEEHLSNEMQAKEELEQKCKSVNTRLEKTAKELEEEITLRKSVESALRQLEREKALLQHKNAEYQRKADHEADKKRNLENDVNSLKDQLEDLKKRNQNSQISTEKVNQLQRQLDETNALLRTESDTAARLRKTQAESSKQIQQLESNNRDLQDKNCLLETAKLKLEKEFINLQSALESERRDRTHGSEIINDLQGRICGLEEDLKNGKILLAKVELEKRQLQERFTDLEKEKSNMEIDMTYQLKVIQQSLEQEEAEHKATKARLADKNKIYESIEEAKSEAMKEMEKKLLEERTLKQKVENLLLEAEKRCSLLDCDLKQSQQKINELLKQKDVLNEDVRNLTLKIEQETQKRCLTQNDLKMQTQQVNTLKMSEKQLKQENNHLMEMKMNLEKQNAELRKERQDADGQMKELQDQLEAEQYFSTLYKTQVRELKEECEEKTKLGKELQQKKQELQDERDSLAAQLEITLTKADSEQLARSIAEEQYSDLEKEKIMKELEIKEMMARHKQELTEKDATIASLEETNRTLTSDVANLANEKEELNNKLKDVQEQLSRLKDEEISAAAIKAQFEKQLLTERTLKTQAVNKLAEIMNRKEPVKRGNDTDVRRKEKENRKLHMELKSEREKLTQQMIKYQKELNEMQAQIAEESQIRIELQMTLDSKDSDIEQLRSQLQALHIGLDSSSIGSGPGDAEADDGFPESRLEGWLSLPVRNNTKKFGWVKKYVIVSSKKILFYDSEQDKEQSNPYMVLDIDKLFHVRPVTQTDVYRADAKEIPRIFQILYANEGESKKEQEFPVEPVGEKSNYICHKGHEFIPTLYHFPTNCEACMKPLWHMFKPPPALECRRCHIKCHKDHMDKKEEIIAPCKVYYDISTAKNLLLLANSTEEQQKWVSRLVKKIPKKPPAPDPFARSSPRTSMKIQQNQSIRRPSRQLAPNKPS

CNS(=O)(=O)c1ccc(N(C)C)c(Nc2ncnc3cc(OC)c(OC)cc23)c1 [compound 7, 3-((6,7-dimethoxyquinazolin-4-yl)amino)-4-(dimethylamino)-N-methylbenzenesulfonamide]
inhibition at 1 µM (IKK-beta): 68% | inhibition at 1 µM (BMPR1A): 0% | inhibition at 1 µM (ROCK2): 0% | inhibition at 1 µM (PDGFRA): 69% | inhibition at 1 µM (ROCK1): 1% | inhibition at 1 µM (ALK(L1196M)): 5% | inhibition at 1 µM (TNK2): 26% | inhibition at 1 µM (KIT(D816H)): 100% | inhibition at 1 µM (GRK3): 38% | inhibition at 1 µM (SGK): 1% | inhibition at 1 µM (ERBB2): 0% | inhibition at 1 µM [1]: 29% | inhibition at 1 µM (ROS1): 0% | inhibition at 1 µM (NEK3): 0% | inhibition at 1 µM (CSNK1A1L): 0% | inhibition at 1 µM (CAMK1): 0% | inhibition at 1 µM (HIPK3): 0% | inhibition at 1 µM (TBK1): 0% | inhibition at 1 µM (PIK3CA(M1043I)): 29% | inhibition at 1 µM (IRAK1): 68% | inhibition at 1 µM (CLK2): 7% | inhibition at 1 µM (PIK3CG): 45% | inhibition at 1 µM (PFCDPK1(P.falciparum)): 96.3% | inhibition at 1 µM (KIT(A829P)): 61%
